Measured values: patent US20240327408A1, “COMPOUNDS CONTAINING TETRAHYDRONAPHTHYRIDINONE OR TETRAHYDROPYRIDOPYRIMIDINONE SKELETON, PREPARATION METHOD THEREFOR AND PHARMACEUTICAL USE THEREOF” (CHINA PHARMACEUTICAL UNIVERSITY, priority 2021, published 2024)
Read-outs that look alike come from different tables or passages of the source. Blank lines part the entries; values can stand above or below the compound they belong to.

Columns and labels:
[1] = target: T1, hClpP (Homo sapiens, UniProt Q16740); assay: activating ClpP hydrolysis of FITC-casein (fluorescence kinetic detection); assay type: biochemical; conditions: hClpP 1 μM, FITC-Casein 4 μM, 37° C.
T1 construct: made in house
Outline: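 hClpP at 1 μM final preincubated with compounds (assay-buffer dilutions 200 μM–2 nM, before mixing) 30 min at 37 °C, then 4 μM final FITC-casein added. Fluorescence read kinetically at 37 °C every 1 min for 15 min, duplicate wells.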

[2] = system: MV4; 11 cells; assay: inhibiting the growth of MV4; 11 cells; assay type: cell-based

T1 sequence (Q16740 57-277): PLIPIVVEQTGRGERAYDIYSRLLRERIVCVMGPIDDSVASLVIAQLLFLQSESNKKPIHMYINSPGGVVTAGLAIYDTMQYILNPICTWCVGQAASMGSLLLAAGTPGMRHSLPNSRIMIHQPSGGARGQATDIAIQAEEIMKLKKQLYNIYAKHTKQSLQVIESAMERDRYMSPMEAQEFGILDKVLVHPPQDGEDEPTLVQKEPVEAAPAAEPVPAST

SMILES: Cn1nccc1Cn1c(=O)c2c(c3cccnc31)CCN(Cc1ccccc1)C2 [Compound I-59, 3-benzyl-6-((1-methyl-1H-pyrazol-5-yl)methyl)-2,3,4,6-tetrahydropyrido[3,4-c][1,8]naphthyridine-5-(1H)-one]
EC50 [1]: 10000 to 100000 nM | IC50 ([2]; Homo sapiens): 1000 to 10000 nM

SMILES: COc1ccc(Cn2c(=O)c3c(n4ccnc24)CCN(Cc2cccc(C)c2)C3)cc1 [Compound I-145, 7-(3-methylbenzyl)-4-(4-methoxybenzyl)-6,7,8,9-tetrahydroimidazo[1,2-a]pyrido[3,4-e]pyrimidine-5(4H)-one]
EC50 [1]: < 1000 nM | IC50 ([2]; Homo sapiens): < 1000 nM

SMILES: O=c1c2c(c3cccnc3n1Cc1ccccc1)CCN(Cc1ccc(Br)cc1)C2 [Compound I-20, 6-benzyl-3-(4-bromobenzyl)-2,3,4,6-tetrahydropyrido[3,4-c][1,8]naphthyridine-5-(1H)-one]
EC50 [1]: 1000 to 10000 nM | IC50 ([2]; Homo sapiens): < 1000 nM

SMILES: Cc1cc(CN2CCc3c(c(=O)n(Cc4ccccc4)c4ncccc34)C2)n(C)n1 [Compound I-26, 6-benzyl-3-((1,3-dimethyl-1H-pyrazol-5-yl)methyl)-2,3,4,6-tetrahydropyrido[3,4-c][1,8]naphthyridine-5-(1H)-one]
EC50 [1]: 10000 to 100000 nM | IC50 ([2]; Homo sapiens): 1000 to 10000 nM

SMILES: CCc1cccc(Cn2c(=O)c3c(c4cccnc42)CCN(Cc2ccccc2)C3)c1 [Compound I-50, 3-benzyl-6-(3-ethylbenzyl)-2,3,4,6-tetrahydropyrido[3,4-c][1,8]naphthyridine-5-(1H)-one]
EC50 [1]: < 1000 nM | IC50 ([2]; Homo sapiens): < 1000 nM

SMILES: Cc1ccccc1Cn1c(=O)c2c(c3cccnc31)CCN(Cc1ccccc1)C2 [Compound I-43, 3-benzyl-6-(2-methylbenzyl)-2,3,4,6-tetrahydropyrido[3,4-c][1,8]naphthyridine-5-(1H)-one]
EC50 [1]: 1000 to 10000 nM | IC50 ([2]; Homo sapiens): < 1000 nM

SMILES: N#Cc1cccc(CN2CCc3c(c(=O)n(Cc4ccc(F)cc4)c4ncccc34)C2)c1 [Compound I-84, 6-(4-fluorobenzyl)-3-(3-cyanobenzyl)-2,3,4,6-tetrahydropyrido[3,4-c][1,8]naphthyridine-5-(1H)-one]
EC50 [1]: < 1000 nM | IC50 ([2]; Homo sapiens): < 1000 nM

SMILES: N#Cc1cccc(CN2CCc3c(c(=O)n(Cc4ccc(C(F)(F)F)cc4)c4ncnn34)C2)c1 [Compound I-151, 4-(4-trifluoromethylbenzyl)-7-(3-cyanobenzyl)-6,7,8,9-tetrahydropyrido[3,4-e][1,2,4]triazolo[1,5-a]pyrimidine-5(4H)-one]
EC50 [1]: 1000 to 10000 nM | IC50 ([2]; Homo sapiens): 1000 to 10000 nM

SMILES: COc1ccccc1CN1CCc2c(c(=O)n(Cc3ccccc3)c3ncccc23)C1 [Compound I-11, 6-benzyl-3-(2-methoxybenzyl)-2,3,4,6-tetrahydropyrido[3,4-c][1,8]naphthyridine-5-(1H)-one]
EC50 [1]: 1000 to 10000 nM | IC50 ([2]; Homo sapiens): < 1000 nM

SMILES: O=c1c2c(n3nccc3n1Cc1ccccc1)CCN(Cc1cccc(Cl)c1)C2 [Compound I-156, 4-benzyl-7-(3-chlorobenzyl)-6,7,8,9-tetrahydropyrazolo[1,5-a]pyrido[3,4-e]pyrimidine-5(4H)-one]
EC50 [1]: 1000 to 10000 nM | IC50 ([2]; Homo sapiens): 1000 to 10000 nM

SMILES: O=c1c2c(c3cccnc3n1Cc1ccccn1)CCN(Cc1ccccc1)C2 [Compound I-61, 3-benzyl-6-(pyridin-2-ylmethyl)-2,3,4,6-tetrahydropyrido[3,4-c][1,8]naphthyridine-5-(1H)-one]
EC50 [1]: 10000 to 100000 nM | IC50 ([2]; Homo sapiens): 1000 to 10000 nM

SMILES: O=c1c2c(n3ccnc3n1Cc1ccc(F)cc1F)CCN(Cc1cccc(F)c1)C2 [Compound I-123, 7-(3-fluorobenzyl)-4-(2,4-difluorobenzyl)-6,7,8,9-tetrahydroimidazo[1,2-a]pyrido[3,4-e]pyrimidine-5(4H)-one]
EC50 [1]: < 1000 nM | IC50 ([2]; Homo sapiens): < 1000 nM

SMILES: O=c1c2c(c3cccnc3n1Cc1ccc(Br)cc1)CCN(Cc1cccc(F)c1)C2 [Compound I-77, 3-(3-fluorobenzyl)-6-(4-bromobenzyl)-2,3,4,6-tetrahydropyrido[3,4-c][1,8]naphthyridine-5-(1H)-one]
EC50 [1]: < 1000 nM | IC50 ([2]; Homo sapiens): < 1000 nM

SMILES: O=c1c2c(c3cccnc3n1Cc1ccc(Cl)cc1)CCN(Cc1ccccc1)C2 [Compound I-53, 3-benzyl-6-(4-chlorobenzyl)-2,3,4,6-tetrahydropyrido[3,4-c][1,8]naphthyridine-5-(1H)-one]
EC50 [1]: < 1000 nM | IC50 ([2]; Homo sapiens): < 1000 nM

SMILES: O=c1c2c(n3ncnc3n1Cc1ccc(Cl)cc1)CCN(Cc1cccc(Cl)c1)C2 [Compound I-154, 4-(4-chlorobenzyl)-7-(3-chlorobenzyl)-6,7,8,9-tetrahydropyrido[3,4-e][1,2,4]triazolo[1,5-a]pyrimidine-5(4H)-one]
EC50 [1]: 1000 to 10000 nM | IC50 ([2]; Homo sapiens): 1000 to 10000 nM

SMILES: O=c1c2c(n3ccnc3n1Cc1ccccc1)CCN(Cc1ccccc1)C2 [Compound I-107, 4,7-dibenzyl-6,7,8,9-tetrahydroimidazo[1,2-a]pyrido[3,4-e]pyrimidine-5(4H)-one]
EC50 [1]: 1000 to 10000 nM | IC50 ([2]; Homo sapiens): 1000 to 10000 nM

SMILES: O=c1c2c(c3cccnc3n1CC1CCCCC1)CCN(Cc1ccccc1)C2 [Compound I-39, 3-benzyl-6-(cyclohexylmethyl)-2,3,4,6-tetrahydropyrido[3,4-c][1,8]naphthyridine-5-(1H)-one]
EC50 [1]: 10000 to 100000 nM | IC50 ([2]; Homo sapiens): 910 nM

Further lines, results first:

EC50 [1]: 1000 to 10000 nM | IC50 ([2]; Homo sapiens): 1000 to 10000 nM
SMILES: O=c1c2c(n3cncc3n1Cc1ccc(Cl)cc1)CCN(Cc1cccc(Cl)c1)C2 [Compound I-166, 7-(3-chlorobenzyl)-4-(4-chlorobenzyl)-6,7,8,9-tetrahydroimidazo[1,5-a]pyrido[3,4-e]pyrimidine-5(4H)-one]

EC50 [1]: < 1000 nM | IC50 ([2]; Homo sapiens): < 1000 nM
SMILES: O=c1c2c(n3ccnc3n1Cc1ccccc1)CCN(Cc1cccc(F)c1)C2 [Compound I-108, 7-(3-fluorobenzyl)-4-benzyl-6,7,8,9-tetrahydroimidazo[1,2-a]pyrido[3,4-e]pyrimidine-5(4H)-one]

EC50 [1]: 1000 to 10000 nM | IC50 ([2]; Homo sapiens): 1000 to 10000 nM
SMILES: O=c1c2c(c3cccnc3n1Cc1ccc3c(c1)OCCO3)CCN(Cc1cccc(Cl)c1)C2 [Compound I-97, 3-(3-chlorobenzyl)-6-((2,3-dihydro[1,4]benzodioxin-6-yl)methyl)-2,3,4,6-tetrahydropyrido[3,4-c][1,8]naphthyridine-5(1H)-one]

EC50 [1]: < 1000 nM | IC50 ([2]; Homo sapiens): < 1000 nM
SMILES: Cc1ccc(Cn2c(=O)c3c(n4ccnc24)CCN(Cc2cccc(F)c2)C3)cc1 [Compound I-133, 7-(3-fluorobenzyl)-4-(4-methylbenzyl)-6,7,8,9-tetrahydroimidazo[1,2-a]pyrido[3,4-e]pyrimidine-5(4H)-one]

EC50 [1]: < 1000 nM | IC50 ([2]; Homo sapiens): < 1000 nM
SMILES: O=c1c2c(c3cccnc3n1Cc1ccccc1)CCN(Cc1cccc(F)c1)C2 [Compound I-12, 6-benzyl-3-(3-fluorobenzyl)-2,3,4,6-tetrahydropyrido[3,4-c][1,8]naphthyridine-5-(1H)-one]

EC50 [1]: < 1000 nM | IC50 ([2]; Homo sapiens): < 1000 nM
SMILES: CCc1ccc(Cn2c(=O)c3c(n4ccnc24)CCN(Cc2cccc(F)c2)C3)cc1 [Compound I-138, 7-(3-fluorobenzyl)-4-(4-ethylbenzyl)-6,7,8,9-tetrahydroimidazo[1,2-a]pyrido[3,4-e]pyrimidine-5(4H)-one]

EC50 [1]: 10000 to 100000 nM | IC50 ([2]; Homo sapiens): 1000 to 10000 nM
SMILES: Cn1cnc(CN2CCc3c(c(=O)n(Cc4ccccc4)c4ncccc34)C2)c1 [Compound I-32, 6-benzyl-3-((1-methyl-1H-imidazol-4-yl)methyl)-2,3,4,6-tetrahydropyrido[3,4-c][1,8]naphthyridine-5-(1H)-one]

EC50 [1]: < 1000 nM | IC50 ([2]; Homo sapiens): < 1000 nM
SMILES: N#Cc1cccc(CN2CCc3c(c(=O)n(Cc4ccccc4)c4nccn34)C2)c1 [Compound I-111, 7-(3-cyanobenzyl)-4-benzyl-6,7,8,9-tetrahydroimidazo[1,2-a]pyrido[3,4-e]pyrimidine-5(4H)-one]

EC50 [1]: < 1000 nM | IC50 ([2]; Homo sapiens): < 1000 nM
SMILES: O=c1c2c(c3cccnc3n1Cc1cccc(Br)c1)CCN(Cc1ccccc1)C2 [Compound I-48, 3-benzyl-6-(3-bromobenzyl)-2,3,4,6-tetrahydropyrido[3,4-c][1,8]naphthyridine-5-(1H)-one]

EC50 [1]: 10000 to 100000 nM | IC50 [2]: 1000 to 10000 nM
SMILES: O=c1c2c(c3cccnc3n1Cc1cc(Cl)ccn1)CCN(Cc1ccccc1)C2 [Compound I-64, 3-benzyl-6-((4-chloropyridin-2-yl)methyl)-2,3,4,6-tetrahydropyrido[3,4-c][1,8]naphthyridine-5-(1H)-one]

EC50 [1]: < 1000 nM | IC50 ([2]; Homo sapiens): < 1000 nM
SMILES: O=c1c2c(c3cccnc3n1Cc1ccc(Br)cc1)CCN(Cc1cccc(Br)c1)C2 [Compound I-79, 3-(3-bromobenzyl)-6-(4-bromobenzyl)-2,3,4,6-tetrahydropyrido[3,4-c][1,8]naphthyridine-5-(1H)-one]

EC50 [1]: < 1000 nM | IC50 ([2]; Homo sapiens): < 1000 nM
SMILES: Cc1ccc(Cn2c(=O)c3c(n4ccnc24)CCN(Cc2ccccc2)C3)cc1 [Compound I-132, 7-benzyl-4-(4-methylbenzyl)-6,7,8,9-tetrahydroimidazo[1,2-a]pyrido[3,4-e]pyrimidine-5(4H)-one]

EC50 [1]: 1000 to 10000 nM | IC50 ([2]; Homo sapiens): 1000 to 10000 nM
SMILES: Cc1ccccc1Cn1c(=O)c2c(n3ccnc13)CCN(Cc1ccccc1)C2 [Compound I-106, 7-benzyl-4-(2-methylbenzyl)-6,7,8,9-tetrahydroimidazo[1,2-a]pyrido[3,4-e]pyrimidine-5(4H)-one]

EC50 [1]: 1000 to 10000 nM | IC50 ([2]; Homo sapiens): < 1000 nM
SMILES: O=c1c2c(c3cccnc3n1Cc1ccccc1)CCN(Cc1ccccc1)C2 [Compound I-5, 3,6-dibenzyl-2,3,4,6-tetrahydropyrido[3,4-c][1,8]naphthyridine-5-(1H)-one]

EC50 [1]: 1000 to 10000 nM | IC50 ([2]; Homo sapiens): < 1000 nM
SMILES: CCc1ccccc1Cn1c(=O)c2c(c3cccnc31)CCN(Cc1ccccc1)C2 [Compound I-44, 3-benzyl-6-(2-ethylbenzyl)-2,3,4,6-tetrahydropyrido[3,4-c][1,8]naphthyridine-5-(1H)-one]

EC50 [1]: 10000 to 100000 nM | IC50 ([2]; Homo sapiens): 1000 to 10000 nM
SMILES: Cn1nccc1CN1CCc2c(c(=O)n(Cc3ccccc3)c3ncccc23)C1 [Compound I-25, 6-benzyl-3-((1-methyl-1H-pyrazol-5-yl)methyl)-2,3,4,6-tetrahydropyrido[3,4-c][1,8]naphthyridine-5-(1H)-one]
